In brackets after ≈: the same amount, converted by molar mass. Where two headings read alike, the source gives them in different places. Marks after values point to notes of the source that are not given here.
How the values were obtained:
[1] = all solvents; background statement; cited from earlier work
IPC-81 rat AML cells = assay: Anti-AML activity, WST-1 viability (Example 72); assay type: cell-based
How it was run: (§1)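 Rat IPC-81 cells in DMEM with 10% horse serum and Molm13 cells in RPMI with 10% FBS, seeded at 150 000 cells/ml with compound dilution series. After 22 h exposure, WST-1 added for a further 2 h; absorbance read at 450 nm (620 nm reference) as viability.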

Molm13 cells = assay: Anti-AML activity, WST-1 viability (Example 72); assay type: cell-based; conditions: Homo sapiens, Molm 13 cells, WST-1
How it was run: as §1

[2] = Parallel artificial membrane permeability assay (PAMPA); conditions: PAMPA, 50 μM in PBS, room temperature, five hours
Method: The Corning Gentest™ pre-Coated parallel artificial membrane permeability assay PAMPA Plate System was from Cording Discovery Labware (Bedford, USA). The compounds were tested in room temperature at 50 μM using PBS as buffer. A total of 300 μl of the compound solution was added to each well of the donor plate, and 200 μl of PBS was added to the receiver filter plate. After incubation for five hours, 50 μl of the donor or acceptor well were injected into a reversed phase HPLC column (Kromasil 100-5 C18 150-4.6 mm, Akzo Nobel, Sweden) connected to a Merck-Hitachi LaChrome HPLC-system (VWR, WestChester, USA) with a L-7455 diode array detector. Mobile phase A was 0.05% aqueous TFA, and mobile phase B was acetonitrile. The flow rate was 1.6 ml/min and compounds eluted between 1 and 4.5 minutes was eluted during a 6.5 min gradient from 90:10% mobile phase A:B to 0:100% mobile phase A:B. The ratio of the compound concentrations in the donor and acceptor compartment was calculated after integration of the peaks at 285 nm. Peff was calculated as described in [Bennion B J, Be N A, McNerney M W, Lao V, Carlson E M, Valdez C A, et al. Predicting a Drug's Membrane Permeability: A Computational Model Validated With in Vitro Permeability Assay Data. The journal of physical chemistry B. 2017; 121(20):5228-37.]. Membrane permeability were classified by the range defined by Bennion et al., allowing for us to divide the compounds into four groups, compounds with high permeability (LogPeff>−5.33), intermediate permeability (LogPeff>−5.66 and <−5.33), low permeability (LogPeff>−6.14 and <−5.66) impermeable (LogPeff<−6.14).

hepG2 = assay: Cytotoxicity (Example 73, Table 2); assay type: cell-based; conditions: Homo sapiens, read-out: EC50 (μM) hepG2
[3] = tested on: normal rat kidney epithelial (NRK) cells; assay: Cytotoxicity, WST-1 and nuclear morphology (Example 73); assay type: cell-based; conditions: Rattus norvegicus
How it was run: (§2)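 MOLM-13 (RPMI/FBS), NRK and H9c2 (DMEM/10% FBS) cells under 2% or 20% O2 at 37° C were exposed to analogues for 24 h (≤1% DMSO). Viability was read by WST-1, and cell death by Hoechst 33342 nuclear morphology; EC50 came from four-parameter regression.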

[4] = tested on: human acute myeloid leukemia cell line MOLM-13; assay: as above; assay type: cell-based
How it was run: as §2

[5] = tested on: rat cardiomyoblast (H9c2) cells; assay: as above; assay type: cell-based; conditions: H9c2, 19% O2, 24 hours of incubation, read-out: EC50 (μM) H9c2 19% O2
How it was run: as §2

[6] = tested on: methicillin-resistant S. aureus MRSA A4-37; assay: Microbroth dilution MIC; assay type: cell-based; conditions: compound alone
Method: (§3) Day 1: • Plate bacterial strain(s) on appropriate media: • Gram-negative bacteria with ESBLs or carbapenemases: green agar plates with 100 mg/L ampicillin • Gram-negative bacteria without β-lactamases: green agar plates • Gram-positive bacteria (Staphylococci and Enterococci): blood agar plates • Incubate o.n. at 37° C.
(§4) Prepare the Bacterial Inoculum: • Prepare a 0.5 McFarland suspension of bacteria in 0.85% NaCl. (Should be used within 15 min of preparation). • Dilute the 0.5 McFarland suspension 1:100 into MH broth.
(§5) Check the inoculum by diluting the prepared bacterial suspension 1:100 (10 μl bacterial suspension+990 μl 0.85% NaCl). Plate 10 μl of the dilution on MH agar plates (×2). Incubate o.n. at 37° C., count the colonies and calculate the final CFU/ml inoculum in the plate by multiplying the average number of colonies with 10000 and divide by 2. The final inoculum should be between 3-7×10^5 CFU/ml. • Add 50 μl of the prepared bacterial suspension to each well in the microtiter plate except negative growth control.
(§6) Preparation of Compounds/Antibiotics • Calculate the desired concentration-range and volume of the compounds/antibiotics in the assay. For antibiotics this will depend on the MIC to meropenem of the bacterial strains to be tested. Dilute the stock solution in MH broth. Make subsequent 2-fold dilutions in MH broth of the desired concentrations if a concentration range is to be tested (remember the extra dilution factor in the assay plate). Always include extra volume for pipetting. Take into consideration stock solutions that are made in buffers that have an effect on bacterial growth (e.g. DMSO).
(§7) This experimental design was used for the results in Tables 4 and 5 below. In Table 4, inhibitor concentration dependency on the MIC of meropenem was studied.

[7] = tested on: vancomycin-resistant E. faecium vanA A1-22; assay: Microbroth dilution MIC; assay type: cell-based; conditions: compound alone
Method: as §3, §4, §5, §6, §7

A.baumannii/OXA-23 = assay: Microbroth dilution MIC; assay type: cell-based; conditions: Acinetobacter baumannii; S7 A.baumannii/OXA-23; substance alone
Method: as §3, §4, §5, §6, §7

K. pneumoniae/NDM-1 = assay: Microbroth dilution MIC; assay type: cell-based; conditions: Klebsiella pneumoniae; S4 K. pneumoniae/NDM-1; substance alone
Method: as §3, §4, §5, §6, §7

E. coli/OXA-48 = assay: Microbroth dilution MIC; assay type: cell-based; conditions: Escherichia coli, read-out: MIC alone
Method: as §3, §4, §5, §6, §7

K. pneumoniae/KPC-2 = assay: Microbroth dilution MIC; assay type: cell-based; conditions: Klebsiella pneumoniae; S6 K. pneumoniae/KPC-2; substance alone
Method: as §3, §4, §5, §6, §7

P. aeruginosa/VIM-2 = assay: Microbroth dilution MIC; assay type: cell-based; conditions: Pseudomonas aeruginosa, read-out: MIC alone
Method: as §3, §4, §5, §6, §7

P. aeruginosa (16H5) = assay: Microbroth dilution MIC; assay type: cell-based; conditions: Pseudomonas aeruginosa; S1 P. aeruginosa (16H5), lacking metallo-β-lactamase; substance alone
Method: as §3, §4, §5, §6, §7

K. pneumoniae (17A2) = assay: Microbroth dilution MIC; assay type: cell-based; conditions: Klebsiella pneumoniae; S2 K. pneumoniae (17A2), lacking metallo-β-lactamase; substance alone
Method: as §3, §4, §5, §6, §7

[8] = 2% O2, 24 h of incubation, read-out: Molm 13 IC50 2% O2
[9] = 20% O2, 24 h of incubation, read-out: Molm 13 IC50 20% O2
[10] = 2% O2, 24 hours of incubation, read-out: EC50 (μM) NRK 2% O2
[11] = 19% O2, 24 hours of incubation, read-out: EC50 (μM) NRK 19% O2
[12] = Homo sapiens, MOLM-13, 2% O2, 24 hours of incubation, read-out: EC50 (μM) MOLM-13 2% O2
[13] = Homo sapiens, MOLM-13, 19% O2, 24 hours of incubation, read-out: EC50 (μM) MOLM-13 19% O2

| SMILES | IC50 (Molm13 cells; [8]) | IC50 (Molm13 cells; [9]) | EC50 (hepG2; hepG2, 24 hours of incubation) | EC50 [3, 10] | EC50 [3, 11] | EC50 [4, 12] | EC50 [4, 13] | EC50 ([5]; Rattus norvegicus) | MIC A4-37 S. aureus MRSA [6] | MIC A1-22 E. faecium vanA [7] | other results |
| --- | --- | --- | --- | --- | --- | --- | --- | --- | --- | --- | --- |
| [O-][n+]1c2cccc(O)c2[n+]([O-])c2cccc(O)c21 [Example 1c, 1,6-dihydroxyphenazine 5,10-dioxide, reference compound] | 270 nM | 300 nM | > 250 µM | > 50 µM | > 50 µM | 0.79 ± 0.1 µM | 2 ± 0.07 µM | > 50 µM | – | – | solubility [1]: practically insoluble in all solvents; IC50 (IPC-81 rat AML cells; IPC81, 24 h, read-out: IPC-81 IC50 2% O2): 510 nM; IC50 (IPC-81 rat AML cells; IPC81, 24 h, read-out: IPC-81 IC50 20% O2): 1300 nM; LogPeff [2]: −5.46* |
| CC(C)(C)OC(=O)COc1cccc2c1[n+]([O-])c1cccc(O)c1[n+]2[O-] [Example 5b, 1-(2-(tert-butoxy)-2-oxoethoxy)-6-hydroxyphenazine 5,10-dioxide] | 1650 nM | 1770 nM | – | 53 µM | 53 ± 1.5 µM | 2.4 ± 0.16 µM | 2.9 ± 0.34 µM | 42 ± 5.8 µM | < 0.5 µg/mL | 8 µg/mL (≈ 22.3 µM) | LogPeff [2]: −5.33 |
| COc1cccc2c1[n+]([O-])c1cccc(OC(C)=O)c1[n+]2[O-] [Example 5e, 1-Acetoxy-6-methoxyphenazine 5,10-dioxide] | 1450 nM | 1500 nM | – | – | – | – | – | – | – | – | IC50 (IPC-81 rat AML cells; IPC81, IPC-81 cells, 2% O2, 24 h of incubation, WST-1, read-out: IPC-81 IC50 2% O2): 1700 nM; IC50 (IPC-81 rat AML cells; IPC81, IPC-81 cells, 20% O2, 24 h of incubation, WST-1, read-out: IPC-81 IC50 20% O2): 1800 nM |
| CCOC(=O)COc1cccc2c1[n+]([O-])c1ccccc1[n+]2[O-] [Example 6a, 1-(2-ethoxy-2-oxoethoxy)phenazine 5,10-dioxide] | – | 110 nM | 75 µM | 25 ± 0.2 µM | 26 ± 0.8 µM | 1.7 ± 0.29 µM | 1.5 ± 0.14 µM | 20 ± 2.9 µM | < 0.5 µg/mL | 4 µg/mL (≈ 12.7 µM) | MIC (A.baumannii/OXA-23): 5 µg/mL (≈ 15.9 µM); MIC (K. pneumoniae/NDM-1): 19.6 µg/mL (≈ 62.4 µM); MIC (E. coli/OXA-48): 2.5 µg/mL (≈ 7.95 µM); MIC (K. pneumoniae/KPC-2): 9.7 µg/mL (≈ 30.9 µM); MIC (P. aeruginosa/VIM-2): 39.3 µg/mL (≈ 125 µM) |
| CCOC(=O)COc1cccc2c1[n+]([O-])c1cc(Br)c(Br)cc1[n+]2[O-] [Example 6d, 7,8-dibromo-1-(2-ethoxy-2-oxoethoxy)phenazine 5,10-dioxide] | – | – | 65 µM | 9.7 ± 2.4 µM | 10 ± 0.7 µM | 1.6 ± 0.09 µM | 2.4 ± 0.03 µM | 3.3 ± 0.5 µM | 16 µg/mL (≈ 33.9 µM) | 8 µg/mL (≈ 16.9 µM) | – |
| COc1cccc2c1[n+]([O-])c1cccc(OC(=O)N3CCCC3)c1[n+]2[O-] [Example 8l, 1-methoxy-6-((pyrrolidine-1-carbonyl)oxy)phenazine 5,10-dioxide] | – | – | – | – | – | – | – | – | < 4 µg/mL | 63 µg/mL (≈ 177 µM) | EC50 (hepG2; HepG2, 24 h): 110 µM; EC50 ([3]; 24 h, read-out: EC50 (μM) NRK 2% O2, NRK, 2% O2, 24 hours of incubation): 35 ± 1.5 µM; EC50 ([3]; 24 h, read-out: EC50 (μM) NRK 19% O2, NRK, 19% O2, 24 hours of incubation): 32 ± 2.5 µM; EC50 ([4]; MOLM-13, 2% O2, 24 hours of incubation, read-out: EC50 (μM) MOLM-13 2% O2): 1.8 ± 0.17 µM; EC50 ([4]; MOLM-13, 19% O2, 24 hours of incubation, read-out: EC50 (μM) MOLM-13 19% O2): 2 ± 0.11 µM; EC50 [5]: 35 ± 3.3 µM |
| C[C@@H](O)[C@H]1C(=O)N2C(C(=O)O)=C(S[C@@H]3CN[C@H](C(=O)N(C)C)C3)[C@H](C)[C@H]12 [MEM, meropenem, reference compound] | – | – | – | – | – | – | – | – | – | – | MIC (P. aeruginosa (16H5)): > 64 µg/mL; MIC (A.baumannii/OXA-23): > 64 µg/mL; MIC (K. pneumoniae/NDM-1): 64 µg/mL (≈ 167 µM); MIC (E. coli/OXA-48): 1 µg/mL (≈ 2.61 µM); MIC (K. pneumoniae (17A2)): 8 µg/mL (≈ 20.9 µM); MIC (K. pneumoniae/KPC-2): > 64 µg/mL; MIC (P. aeruginosa/VIM-2; S3 P. aeruginosa/VIM-2, substance alone): 32 µg/mL (≈ 83.4 µM) |

From patent publication US11958842B2, “Substituted phenazines and methods of treating cancer and bacterial diseases” (Adjutec Pharma AS, priority 2016, dated 2024)
